Patent publication US5789434A, “Derivatives of substituted 4-biarylbutyric acid as matrix metalloprotease inhibitors” (priority 1995, dated 1998)
pIC50: −log10 of the molar value.

Key:
Format in all cases: biochemical
MMP-3 = molecular target: T1, MMP-3 (Homo sapiens, UniProt P08254); assay: Automated MMP Profiling Assay, MMP-3 fluorogenic; settings: for pIC50: 96-well automated, P218
T1 construct: Truncated Prostromelysin-257 was expressed in a soluble form in E.coli; made in house; host or cells: E. coli
T1 sequence (P08254 100-274 limits assumed): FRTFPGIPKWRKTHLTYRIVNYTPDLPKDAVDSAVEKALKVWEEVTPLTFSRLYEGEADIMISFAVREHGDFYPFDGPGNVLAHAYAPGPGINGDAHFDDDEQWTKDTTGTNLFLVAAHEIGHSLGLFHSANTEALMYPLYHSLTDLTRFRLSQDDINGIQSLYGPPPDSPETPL
Description: This assay with each invention compound was run with the three enzymes MMP-3, MMP-9 and MMP-2 in parallel as adapted for a 96-well microtitre plate using a Hamilton A® workstation.

MMP-9 = molecular target: T2, MMP-9 (Homo sapiens, UniProt P14780); assay: Automated MMP Profiling Assay, MMP-9 fluorogenic; settings: for pIC50: 96-well automated, P218
T2 construct: from tissue; host or cells: human polymorphonuclear leukocytes (PMN) from whole blood (New York Blood Center), PMA-stimulated supernatant
T2 sequence (P14780 107-707 limits assumed): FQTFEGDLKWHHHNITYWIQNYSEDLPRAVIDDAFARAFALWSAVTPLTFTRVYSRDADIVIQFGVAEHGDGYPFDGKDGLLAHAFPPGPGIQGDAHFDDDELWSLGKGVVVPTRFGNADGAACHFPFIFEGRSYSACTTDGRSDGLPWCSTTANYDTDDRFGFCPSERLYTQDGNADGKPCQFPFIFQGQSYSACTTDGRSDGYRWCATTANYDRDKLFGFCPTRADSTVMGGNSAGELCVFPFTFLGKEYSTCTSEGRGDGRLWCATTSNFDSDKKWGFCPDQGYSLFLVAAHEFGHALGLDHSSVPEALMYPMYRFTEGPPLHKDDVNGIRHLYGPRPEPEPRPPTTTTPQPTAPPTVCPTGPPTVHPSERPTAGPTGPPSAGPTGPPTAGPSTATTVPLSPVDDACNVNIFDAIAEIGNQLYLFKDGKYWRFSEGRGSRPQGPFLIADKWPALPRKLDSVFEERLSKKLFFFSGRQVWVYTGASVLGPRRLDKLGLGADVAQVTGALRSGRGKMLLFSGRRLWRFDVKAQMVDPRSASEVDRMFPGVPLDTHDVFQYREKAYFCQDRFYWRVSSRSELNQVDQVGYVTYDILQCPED

MMP-2 = molecular target: T3, MMP-2 (Homo sapiens, UniProt P08253); assay: Automated MMP Profiling Assay, MMP-2 fluorogenic; settings: for pIC50: 96-well automated, P218, read-out: MMP-2 Fluorogenic IC50 (profiling)
T3 sequence (P08253 110-660): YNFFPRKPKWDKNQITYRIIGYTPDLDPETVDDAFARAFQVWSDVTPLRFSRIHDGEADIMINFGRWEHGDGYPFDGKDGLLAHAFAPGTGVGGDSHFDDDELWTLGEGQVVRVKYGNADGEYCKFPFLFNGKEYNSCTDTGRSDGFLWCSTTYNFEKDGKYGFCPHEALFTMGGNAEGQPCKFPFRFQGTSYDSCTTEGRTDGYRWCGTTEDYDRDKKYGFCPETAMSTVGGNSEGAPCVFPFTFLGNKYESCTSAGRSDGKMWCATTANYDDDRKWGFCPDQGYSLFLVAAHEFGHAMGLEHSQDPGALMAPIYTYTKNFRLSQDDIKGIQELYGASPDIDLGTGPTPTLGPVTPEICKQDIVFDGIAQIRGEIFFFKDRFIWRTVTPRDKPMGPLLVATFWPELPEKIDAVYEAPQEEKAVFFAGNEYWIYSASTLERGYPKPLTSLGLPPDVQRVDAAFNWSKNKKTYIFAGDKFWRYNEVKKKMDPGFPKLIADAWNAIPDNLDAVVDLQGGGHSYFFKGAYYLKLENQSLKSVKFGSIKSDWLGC

Row | SMILES | pIC50 (MMP-3) | pIC50 (MMP-9) | pIC50 (MMP-2) | inhibition at 5 µM (MMP-3) | inhibition at 5 µM (MMP-9) | inhibition at 5 µM (MMP-2; at 5 μM)
1 | O=C(C[C@H](CS(=O)(=O)c1ccccc1)C(=O)O)c1ccc(-c2ccc(Cl)cc2)cc1 [Example 314, [1,1'-Biphenyl]-4-butanoic acid, 4'-chloro-γ-oxo-α-[(phenylsulfonyl)methyl]-, (S)-] | 6.40 | 6.26 | 7.89 | – | – | –
2 | CCCCCOc1ccc(-c2ccc(C(=O)[C@H]3CC[C@@H](Cc4ccccc4)[C@@H]3C(=O)O)cc2)cc1 [Example 324, Cyclopentanecarboxylic acid, 2-[[4'-(pentyloxy)[1,1'-biphenyl]-4-yl]carbonyl]-5-(phenylmethyl)-, [1S-(1α,2β,5β)]-] | 7.34 | 6.46 | 8.09 | – | – | –
3 | CCCCCOc1ccc(-c2ccc(C(=O)[C@@H]3CC[C@H](Cc4ccccc4)[C@H]3C(=O)O)cc2)cc1 [Example 325, Cyclopentanecarboxylic acid, 2-[[4'-(pentyloxy)[1,1'-biphenyl]-4-yl]carbonyl]-5-(phenylmethyl)-, [1R-(1α,2β,5β)]-] | – | – | 5.36 | 10% | 0% | –
4 | C#Cc1ccc(-c2ccc(C(=O)CC(CCCc3ccccc3)C(=O)O)cc2)cc1 (stereo not drawn) [Example 351, [1,1'-Biphenyl]-4-butanoic acid, 4'-ethynyl-γ-oxo-α-(3-phenylpropyl)-] | 6.97 | 6.82 | 7.30 | – | – | –
5 | CCCCC#Cc1ccc(-c2ccc(C(=O)CC(CCCc3ccccc3)C(=O)O)cc2)cc1 (stereo not drawn) [Example 352, [1,1'-Biphenyl]-4-butanoic acid, 4'-(1-hexynyl)-γ-oxo-α-(3-phenylpropyl)-] | 6.89 | 6.04 | 7.21 | – | – | –
6 | COC/C=C/c1ccc(-c2ccc(C(=O)CC(CCCc3ccccc3)C(=O)O)cc2)cc1 (stereo not drawn) [Example 353, [1,1'-Biphenyl]-4-butanoic acid, 4'-(3-methoxy-1-propenyl)-γ-oxo-α-(3-phenylpropyl)-, (E)-] | 7.08 | 6.56 | 7.70 | – | – | –
7 | COC/C=C\c1ccc(-c2ccc(C(=O)CC(CCCc3ccccc3)C(=O)O)cc2)cc1 (stereo not drawn) [Example 354, [1,1'-Biphenyl]-4-butanoic acid, 4'-(3-methoxy-1-propenyl)-γ-oxo-α-(3-phenylpropyl)-, (Z)-] | 6.24 | 5.77 | 7.12 | – | – | –
8 | COCCCc1ccc(-c2ccc(C(=O)CC(CCCc3ccccc3)C(=O)O)cc2)cc1 (stereo not drawn) [Example 355, [1,1'-Biphenyl]-4-butanoic acid, 4'-(3-methoxypropyl)-γ-oxo-α-(3-phenylpropyl)-] | 6.29 | 5.97 | 7.05 | – | – | –
9 | CCCC/C=C\c1ccc(-c2ccc(C(=O)CC(CCCc3ccccc3)C(=O)O)cc2)cc1 (stereo not drawn) [Example 356, [1,1'-Biphenyl]-4-butanoic acid, 4'-(1-hexenyl)-γ-oxo-α-(3-phenylpropyl)-, (Z)-] | – | – | 6.73 | 45% | 14% | –
10 | CCCCCCc1ccc(-c2ccc(CCC(CCCc3ccccc3)C(=O)O)cc2)cc1 (stereo not drawn) [Example 357, [1,1'-Biphenyl]-4-butanoic acid, 4'-hexyl-α-(3-phenylpropyl)-] | – | – | – | 15% | 4% | 38%
11 | O=C(CC(CCCc1ccccc1)C(=O)O)c1ccc(-c2ccc(/C=C\c3ccccc3)cc2)cc1 (stereo not drawn) [Example 358, [1,1'-Biphenyl]-4-butanoic acid, 4'-γ-oxo-4'-(2-phenylethenyl)-α-(3-phenylpropyl)-, (Z)-] | – | – | 6.91 | 39% | 4% | –
12 | O=C(CC(CCCc1ccccc1)C(=O)O)c1ccc(-c2ccc(CCc3ccccc3)cc2)cc1 (stereo not drawn) [Example 359, [1,1'-Biphenyl]-4-butanoic acid, 4'-γ-oxo-4'-(2-phenylethyl)-α-(3-phenylpropyl)-] | 7.08 | – | 7.29 | – | 16% | –
13 | O=C(CC(CCN1C(=O)c2ccc(OCc3ccccc3)cc2C1=O)C(=O)O)c1ccc(-c2ccc(Cl)cc2)cc1 (stereo not drawn) [Example 405, 2H-Isoindole-2-butanoic acid, α-[2-(4'-chloro[1,1'-biphenyl]-4-yl)-2-oxoethyl]-1,3-dihydro-1,3-dioxo-5-(phenylmethoxy)-] | 7.12 | 8.24 | 7.10 | – | – | –
14 | CCCOc1ccc2c(c1)C(=O)N(CCC(CC(=O)c1ccc(-c3ccc(Cl)cc3)cc1)C(=O)O)C2=O (stereo not drawn) [Example 406, 2H-Isoindole-2-butanoic acid, α-[2-(4'-chloro[1,1'-biphenyl]-4-yl)-2-oxoethyl]-1,3-dihydro-1,3-dioxo-5-propoxy-] | 7.99 | 8.77 | 7.77 | – | – | –
15 | O=C(CC(CCN1C(=O)c2cccc(OCc3ccccc3)c2C1=O)C(=O)O)c1ccc(-c2ccc(Cl)cc2)cc1 (stereo not drawn) [Example 407, 2H-Isoindole-2-butanoic acid, α-[2-(4'-chloro[1,1'-biphenyl]-4-yl)-2-oxoethyl]-1,3-dihydro-1,3-dioxo-4-(phenylmethoxy)-] | 7.16 | 7.44 | 7.41 | – | – | –
16 | O=C(CC(CCN1C(=O)c2cc3ccccc3cc2C1=O)C(=O)O)c1ccc(-c2ccc(Cl)cc2)cc1 (stereo not drawn) [Example 409, 2H-Benz[.function.]isoindole-2-butanoic acid, α-[2-(4'-chloro[1,1'-biphenyl]-4-yl)-2-oxoethyl]-1,3-dihydro-1,3-dioxo-] | 7.91 | 8.72 | 7.52 | – | – | –
17 | O=C(CC(CCN1C(=O)c2cccc3cccc(c23)C1=O)C(=O)O)c1ccc(-c2ccc(Cl)cc2)cc1 (stereo not drawn) [Example 410, 1H-Benz[de]isoquinoline-2(3H)-butanoic acid, α-[2-(4'-chloro[1,1'-biphenyl]-4-yl)-2-oxoethyl]-1,3-dioxo-] | 6.98 | 7.36 | 7.10 | – | – | –
18 | O=C(CC(CCN1C(=O)CCC1=O)C(=O)O)c1ccc(-c2ccc(Cl)cc2)cc1 (stereo not drawn) [Example 411, 1-Pyrrolidinebutanoic acid, α-[2-(4'-chloro[1,1'-biphenyl]-4-yl)-2-oxoethyl]-2,5-dioxo-] | 6.94 | 6.67 | 7.57 | – | – | –
19 | CCOc1ccc(-c2ccc(C(=O)CC(CCN3C(=O)CCC3=O)C(=O)O)cc2)cc1 (stereo not drawn) [Example 412, 1-Pyrrolidinebutanoic acid, α-[2-(4'-ethoxy[1,1'-biphenyl]-4-yl)-2-oxoethyl]-2,5-dioxo-] | 7.08 | 7.39 | 8.00 | – | – | –
20 | CC(C)(C)c1ccc2c(c1)C(=O)N(CCC(CC(=O)c1ccc(-c3ccc(Cl)cc3)cc1)C(=O)O)C2=O (stereo not drawn) [Example 414, 2H-Isoindole-2-butanoic acid, α-[2-(4'-chloro[1,1'-biphenyl]-4-yl)-2-oxoethyl]-5-(1,1-dimethylethyl)-1,3-dihydro-1,3-dioxo-] | 7.43 | 7.82 | 7.10 | – | – | –
21 | O=C(CC(CCN1C(=O)c2cc(Cl)c(Cl)cc2C1=O)C(=O)O)c1ccc(-c2ccc(Cl)cc2)cc1 (stereo not drawn) [Example 415, 2H-Isoindole-2-butanoic acid, 5,6-dichloro-α-[2-(4'-chloro[1,1'-biphenyl]-4-yl)-2-oxoethyl]-1,3-dihydro-1,3-dioxo-] | 7.92 | 8.92 | 7.47 | – | – | –
22 | Cc1ccc2c(c1)C(=O)N(CCC(CC(=O)c1ccc(-c3ccc(Cl)cc3)cc1)C(=O)O)C2=O (stereo not drawn) [Example 416, 2H-Isoindole-2-butanoic acid, α[2-(4'-chloro[1,1'-biphenyl]-4-yl)-2-oxoethyl]-1,3-dihydro-5-methyl-1,3-dioxo-] | 8.02 | 8.60 | 7.64 | – | – | –
